One data set relates to Aphidius rhopalosiphi. The experiment in a line: LR50; higher = less toxic. To be noted: other; mortality.
For the next data set, the system named is Typhlodromus pyri. The experiment in a line: LR50; higher = less toxic. To be noted: other; mortality.
Another data set relates to Daphnia magna. The conditions noted are these: chronic/long-term; duration: 21 days; reproduction.
Another data set has as its system Oryctolagus sp. To be noted: developmental; development.
In the next data set the test system is Rattus norvegicus. To be noted: for NOAEL: chronic.
The next data set relates to Oncorhynchus mykiss. To be noted: chronic/long-term; duration: 21 days; growth.
The subject of the next data set is Folsomia candida. The conditions noted are these: chronic/long-term; duration: 28 days.
Another data set relates to Apis mellifera. The conditions noted are these: acute, mortality.

For the compound `COC(=O)c1ccccc1S(=O)(=O)NC(=O)Nc1nc(C)nc(OC)n1` [Metsulfuron-methyl], the LR50 with Aphidius rhopalosiphi and in the data set with Typhlodromus pyri was more than 8 g/ha each time. The LD50 in the data set on Anas platyrhynchos (acute, oral, unspecified) was more than 2510 mg/kg-day; with Rattus norvegicus (acute, oral, mortality), more than 5000 mg/kg-day; with Apis mellifera (dermal), more than 50 µg/piece; in the data set with Apis mellifera (oral, unspecified), more than 44.3 µg/piece. The NOAEL (in general, the highest tested level that showed no adverse finding) in the data set on Anas platyrhynchos (reproductive) is 100 mg/kg-day; in the data set with Oryctolagus sp. it was 25 mg/kg-day; with Rattus norvegicus it was 25 mg/kg-day; in the data set on Rattus norvegicus (duration: 2 years, body weight) it was 22.4 mg/kg-day. For the same compound, the LC50 was more than 1280 mg/kg-day with Anas platyrhynchos (short-term, oral, feed) and more than 1000 mg/kg with Tagia sp. (acute, duration: 14 days, mortality). For the same compound, the NOEC with Daphnia magna was 3.13 mg/L; with Tagia sp. (chronic/long-term, duration: 56 days), 0.83 mg/kg; with Oncorhynchus mykiss, 68 mg/L; in the data set on Folsomia candida it was not below 250 mg/kg.

These data come from EPA's ToxValDB 9.5 (doi:10.2903/j.efsa.2015.3936).
